{"source": "patent US20060189624A1", "about": "“Novel combination for treating sexual dysfunction” (Bayer Aktiengesellschaft, priority 1999, published 2006)", "system": "adult male rabbits of the animal strain HsdHHL Watanables", "experiment": "Erection (length of the protruding penis) in hypercholesterolemic rabbits after cGMP PDE inhibitor, with or without antilipemic pretreatment", "type": "in vivo, rabbit", "conditions": "cerivastatin sodium 1 mg/kg s.c. for 7 days", "method": "In a placebo-controlled study, twelve adult male rabbits of the animal strain HsdHHL Watanables having a body weight of 3-5 kg, which, owing to breeding, suffer from hypercholesterolemia and arteriosclerosis, were treated with a selective cGMP PDE inhibitor (3 mg/kg, intravenously).\nThe animals had free access to water and, for 2 hours per day, to feed. The animals were kept in a 10/14 hour day/night rhythm (light on from 8 am onwards), and the ambient temperature was 22 to 24° C.\nThe selective cGMP PDE inhibitor used was 2-[2-ethoxy-5-(4-ethyl-piperazine-1-sulfonyl)-phenyl]-5-methyl-7-propyl-3H-imidazo[5,1-f][1,2,4]triazin-4-one hydrochloride trihydrate (Ex. 336 of WO-A-99/24433).\nFor intravenous injection, the PDE inhibitor was dissolved in physiological saline (0.9% by volume).\nFor seven days prior to the treatment with the PDE inhibitor, i.e. for 7 successive days, an antilipemic, i.e. cerivastatin sodium (i.e. the monosodium salt of cerivastatin) was administered subcutaneously to six of the twelve rabbits (1 mg/kg of body weight, cerivastatin sodium dissolved in physiological saline). […]\nThe erection was evaluated by measuring the length of the protruding penis using a vernier caliper. […] To this end, the animals were in each case removed from the cage, held by neck hair and hind legs, turned onto their back and measured. […]"}
{"smiles": "COCc1c(C(C)C)nc(C(C)C)c(/C=C/[C@@H](O)C[C@@H](O)CC(=O)O)c1-c1ccc(F)cc1", "note": "[cerivastatin sodium]", "values": [{"measurement": "erection 1 day after the cerivastatin sodium pretreatment had ended compared with 3 days after (FIG. 2, upper vs middle curve)", "setting": "then PDE inhibitor 3 mg/kg i.v., 1 day vs 3 days after end of pretreatment", "value": "still more pronounced"}, {"measurement": "erection after administration of the PDE inhibitor, compared with rabbits not pretreated with the antilipemic (FIG. 2)", "setting": "then PDE inhibitor (Ex. 336 of WO-A-99/24433) 3 mg/kg i.v. 1 day and 3 days after pretreatment ended, measured 5-120 min, control saline pretreatment", "value": "considerably more pronounced erection"}]}
